Assay results taken from patent US7300925B2, “2-ethyl and 2-ethylidene-19-nor-vitamin D compounds” (Wisconsin Alumni Research Foundation, priority 2000, dated 2007).
Where “and” joins values, the source holds several entries; their conditions need not be identical. Equal entries are not always repeated.

How the values were obtained:
[1] = system: bone calcium mobilization; assay: bone calcium mobilization (serum Ca) in vitamin D-deficient rats on a low-calcium diet; format: in vivo; conditions: for Serum Ca (mean ± SEM): vitamin D-deficient rats, low-calcium diet, 24 hours after the last dose
[2] = system: intestinal calcium transport; assay: support of intestinal calcium transport in vitamin D-deficient rats on a low-calcium diet; format: in vivo; conditions: for Ca transport S/M (mean ± SEM): vitamin D-deficient rats, low-calcium diet, 24 hours after the last dose
[3] = system: human promyelocyte HL-60 cells; assay: induction of differentiation of HL-60 cells into monocytes; format: cell-based; conditions: compared with 1α,25-(OH)2D3; FIG. 6a, 6b
Method: FIG. 6a is a graph illustrating the percent HL-60 cell differentiation as a function of the concentration of the 2-ethylidene-19-nor-vitamins as compared to 1α,25-dihydroxyvitamin D3; and
FIG. 6b is a graph illustrating the percent HL-60 cell differentiation as a function of the concentration of the 2α and 2β-ethyl-19-nor-vitamins as compared to 1α,25-dihydroxyvitamin D3.
The synthesized vitamins were tested for their ability to bind the porcine intestinal vitamin D receptor. […] In the next assay, the cellular activity of the synthesized compounds was established by studying their ability to induce differentiation of human promyelocyte HL-60 cells into monocytes.

[4] = 130 pmol daily i.p. for seven days
[5] = 260 pmol daily i.p. for seven days
[6] = 65 pmol daily i.p. for seven days

Row | Structure (SMILES) | Serum Ca (mean ± SEM) [1, 4] | Serum Ca (mean ± SEM) [1, 5] | Ca transport S/M (mean ± SEM) [2, 4] | Ca transport S/M (mean ± SEM) [2, 5] | Serum Ca (mean ± SEM) [1, 6] | Ca transport S/M (mean ± SEM) [2, 6] | ability to induce differentiation of HL-60 cells into monocytes (in words) [3] | calcemic activity in vivo in rats (in words) ([1]; overall judgement of Table 1 (intestine and bone)) | ability to mobilize calcium from bone (in words) ([1]; rats, Table 1) | intestinal activity (in words) ([2]; rats, Table 1)
1 | C=C1/C(=C\C=C2/CCC[C@]3(C)[C@@H]([C@H](C)CCCC(C)(C)O)CC[C@@H]23)C[C@@H](O)C[C@@H]1O [Compound 1, 1α,25-dihydroxyvitamin D3, reference compound] | 5.2 ± 0.2 and 5.1 ± 0.3 | 5.8 ± 0.3 and 6.4 ± 0.4 and 5.8 ± 0.1 | 4.9 ± 0.7 and 5.5 ± 0.5 | 5.9 ± 0.4 and 6.0 ± 0.9 and 6.5 ± 0.9 | – | – | – | – | – | –
2 | CC=C1C(O)CC(=CC=C2CCCC3(C)C2CCC3C(C)CCCC(C)(C)O)CC1O (stereo not drawn) [Compound 4a, 1α,25-dihydroxy-2(E)-ethylidene-19-nor-vitamin D3] | 5.2 ± 0.2 | – | 6.8 ± 0.4 | – | 4.5 ± 0.1 | 5.0 ± 0.4 | – | – | – | –
3 | CC=C1[C@H](O)CC(=C/C=C2\CCC[C@@]3(C)C2CCC3[C@@H](C)CCCC(C)(C)O)C[C@H]1O (stereo partly drawn) [Compound 4b, 2-ethylidene-19-nor-(20S)-1α,25-(OH)2D3 (E-isomer)] | 12.1 ± 0.6 | – | 5.8 ± 0.8 | – | 8.2 ± 0.3 | 9.0 ± 0.3 | more potent than 1α,25-(OH)2D3 | especially potent | – | –
4 | CC=C1C(O)CC(=CC=C2CCCC3(C)C2CCC3C(C)CCCC(C)(C)O)CC1O (stereo not drawn) [Compound 5a, 1α,25-dihydroxy-2(Z)-ethylidene-19-nor-vitamin D3] | 4.2 ± 0.0 | – | 5.7 ± 0.9 | – | 4.4 ± 0.2 | 4.4 ± 0.4 | – | – | – | –
5 | CC=C1[C@H](O)CC(=C/C=C2\CCC[C@@]3(C)C2CCC3[C@@H](C)CCCC(C)(C)O)C[C@H]1O (stereo partly drawn) [Compound 5b, 2-ethylidene-19-nor-(20S)-1α,25-(OH)2D3 (Z-isomer)] | 4.0 ± 0.1 | – | 3.8 ± 0.3 | – | 4.0 ± 0.3 | 4.3 ± 0.7 | – | – | – | –
6 | CCC1C(O)CC(=CC=C2CCCC3(C)C2CCC3C(C)CCCC(C)(C)O)CC1O (stereo not drawn) [Compound 6a, 2α-ethyl-19-nor-1α,25-(OH)2D3] | – | 5.1 ± 0.1 | – | 4.0 ± 0.4 | – | – | – | – | – | –
7 | CCC1C(O)CC(=CC=C2CCCC3(C)C2CCC3C(C)CCCC(C)(C)O)CC1O [Compound 6b, 2α-ethyl-19-nor-(20S)-1α,25-(OH)2D3] | – | 7.0 ± 0.1 | – | 5.0 ± 0.4 | – | – | – | – | strong calcium mobilization response | marked intestinal activity
8 | CCC1C(O)CC(=CC=C2CCCC3(C)C2CCC3C(C)CCCC(C)(C)O)CC1O (stereo not drawn) [Compound 7a, 2β-ethyl-19-nor-1α,25-(OH)2D3] | – | 5.0 ± 0.1 | – | 3.7 ± 0.3 | – | – | – | – | – | –
9 | CCC1C(O)CC(=CC=C2CCCC3(C)C2CCC3C(C)CCCC(C)(C)O)CC1O [Compound 7b, 2β-ethyl-19-nor-(20S)-1α,25-(OH)2D3] | – | 5.6 ± 0.1 | – | 4.1 ± 0.3 | – | – | – | – | – | –
